Patent US20250281424A1 (New York Blood Center, Inc, priority 2020, published 2025)
Like-named read-outs stand apart in the source and are kept apart here.

Molecular target: T1, human PF4 (Homo sapiens, UniProt P02776)
T1 construct: PF4 is a 70 amino acid, lysine-rich 7.8 kDa platelet-specific protein; made in house; host or cells: Escherichia coli BL21DE3 pLysS (pT7-7) and/or Drosophila S2 cells
T1 sequence (P02776 32-101): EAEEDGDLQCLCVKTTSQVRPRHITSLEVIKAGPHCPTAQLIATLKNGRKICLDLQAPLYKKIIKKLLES
Assay: Inhibition of PF4 tetramer formation (BS3 cross-linking, SDS-PAGE)
Assay type: biochemical
Summary of the method: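 Monomer, dimer, trimer and tetramer fractions were quantified by densitometry after reducing 12% SDS-PAGE of BS3-cross-linked (0.2 mM, 30 min, room temperature) PF4. Before cross-linking, 10 μg/ml E. coli-expressed human WT PF4 in PBS was exposed to compound for 15 min at 37° C or 60 min at room temperature; controls lacked compound.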

[1] = 3 μM inhibitor (column A), 3 µM
[2] = read-out: IC50 of PF4 tetramer formation inhibition
[3] = 1 μM inhibitor, read-out: % inhibition of PF4 tetramer formation at single concentration of inhibitor
[4] = 3 μM inhibitor (column A), read-out: % inhibition of PF4 tetramer formation at single concentration of inhibitor

% inhibition of PF4 tetramer formation at single concentration of inhibitor (1 μM inhibitor, 1 µM)	% inhibition of PF4 tetramer formation at single concentration of inhibitor [1]	inhibition at 3 µM [4]	SMILES	IC50 [2]	inhibition at 1 µM [3]	IC50	inhibition at 10 µM (10 μM inhibitor (column A), read-out: % inhibition of PF4 tetramer formation at single concentration of inhibitor)
		42%	N#CC1C(=O)c2ccc(C(=O)c3ccc4c(c3)C(=O)C(C#N)C4=O)cc2C1=O (centres unmarked) [Example 250, 5-(2-cyano-1,3-dioxo-2,3-dihydro-1H-indene-5-carbonyl)-1,3-dioxo-2,3-dihydro-1H-indene-2-carbonitrile]	3 µM	26%		
		20%	O=C(c1ccc2c(c1)C(=O)C(C(=O)CCC(=O)c1cccc(Cl)c1Cl)C2=O)c1ccc2c(c1)C(=O)C(C(=O)CCC(=O)c1cccc(Cl)c1Cl)C2=O (centres unmarked) [Example 253, 2-[4-(2,3-dichlorophenyl)-4-oxobutanoyl]-5-{2-[4-(2,3-dichlorophenyl)-4-oxobutanoyl]-1,3-dioxo-2,3-dihydro-1H-indene-5-carbonyl}-2,3-dihydro-1H-indene-1,3-dione]		20%		
9%	51%	42%	O=C(CCC(=O)C1C(=O)c2ccc(S(=O)(=O)c3ccc4c(c3)C(=O)C(C(=O)CCC(=O)c3cccc(Cl)c3Cl)C4=O)cc2C1=O)c1cccc(Cl)c1Cl (centres unmarked) [Example 255, 2-[4-(2,3-dichlorophenyl)-4-oxobutanoyl]-5-({2-[4-(2,3-dichlorophenyl)-4-oxobutanoyl]-1,3-dioxo-2,3-dihydro-1H-inden-5-yl}sulfonyl)-2,3-dihydro-1H-indene-1,3-dione]		18%		
		37%	COC(=O)[C@H]1CCCC[C@H]1C(=O)C1C(=O)c2ccc(S(=O)(=O)c3ccc4c(c3)C(=O)C(C(=O)[C@@H]3CCCC[C@@H]3C(=O)OC)C4=O)cc2C1=O (stereo partly drawn) [Example 257, methyl (1S,2R)-2-[5-({2-[(1R,2S)-2-(methoxycarbonyl)cyclohexanecarbonyl]-1,3-dioxo-2,3-dihydro-1H-inden-5-yl}sulfonyl)-1,3-dioxo-2,3-dihydro-1H-indene-2-carbonyl]cyclohexane-1-carboxylate]		7%		
		55%	Cc1ccccc1C(=O)CCC(=O)C1C(=O)c2ccc(Oc3ccc4c(c3)C(=O)C(C(=O)CCC(=O)c3ccccc3C)C4=O)cc2C1=O (centres unmarked) [Example 259, 2-[4-(2-methylphenyl)-4-oxobutanoyl]-5-({2-[4-(2-methylphenyl)-4-oxobutanoyl]-1,3-dioxo-2,3-dihydro-1H-inden-5-yl}oxy)-2,3-dihydro-1H-indene-1,3-dione]		18%		
		67%	O=C1c2ccc(Oc3ccc4c(c3)C(=O)C(C(=O)[C@@H]3C[C@H]3C(=O)O)C4=O)cc2C(=O)C1C(=O)[C@@H]1C[C@H]1C(=O)O (stereo partly drawn) [Example 262, (1R,2R)-2-({5-[(2-{[(1R,2R)-2-carboxycyclopropyl](hydroxy)methylidene}-1,3-dioxo-2,3-dihydro-1H-inden-5-yl)oxy]-1,3-dioxo-2,3-dihydro-1H-inden-2-ylidene}(hydroxy)methyl)cyclopropane-1-carboxylic acid]	1.33 µM	49%		
		34%	CC(=O)NCCCC(=O)C1C(=O)c2ccc(Oc3ccc4c(c3)C(=O)C(C(=O)CCCNC(C)=O)C4=O)cc2C1=O (centres unmarked) [Example 265, N-[4-(5-{[2-(4-acetamidobutanoyl)-1,3-dioxo-2,3-dihydro-1H-inden-5-yl]oxy}-1,3-dioxo-2,3-dihydro-1H-inden-2-yl)-4-oxobutyl]acetamide]		18%		
		25%	CN1CCC(C(=O)C2C(=O)c3ccc(C(=O)c4ccc5c(c4)C(=O)C(C(=O)C4CCN(C)CC4)C5=O)cc3C2=O)CC1 (centres unmarked) [Example 266, 2-(1-methylpiperidine-4-carbonyl)-5-[2-(1-methylpiperidine-4-carbonyl)-1,3-dioxo-2,3-dihydro-1H-indene-5-carbonyl]-2,3-dihydro-1H-indene-1,3-dione]				

The next lines start with the molecule.

SMILES	% inhibition of PF4 tetramer formation at single concentration of inhibitor (1 μM inhibitor, 1 µM)	% inhibition of PF4 tetramer formation at single concentration of inhibitor [1]	inhibition at 3 µM [4]	IC50 [2]	inhibition at 1 µM [3]	IC50	inhibition at 10 µM (10 μM inhibitor (column A), read-out: % inhibition of PF4 tetramer formation at single concentration of inhibitor)
CC(=O)NCC(=O)C1C(=O)c2ccc(Oc3ccc4c(c3)C(=O)C(C(=O)CNC(C)=O)C4=O)cc2C1=O (centres unmarked) [Example 246, N-[2-(5-{[2-(2-acetamidoacetyl)-1,3-dioxo-2,3-dihydro-1H-inden-5-yl]oxy}-1,3-dioxo-2,3-dihydro-1H-inden-2-yl)-2-oxoethyl]acetamide]	12%	30%		3 µM			
CCOCC(=O)C1C(=O)c2ccc(Oc3ccc4c(c3)C(=O)C(C(=O)COCC)C4=O)cc2C1=O (centres unmarked) [Example 247, 2-(2-ethoxyacetyl)-5-{[2-(2-ethoxyacetyl)-1,3-dioxo-2,3-dihydro-1H-inden-5-yl]oxy}-2,3-dihydro-1H-indene-1,3-dione]			27%	3 µM	19%		
CO[C@@H](C)C(=O)C1C(=O)c2ccc(Oc3ccc4c(c3)C(=O)C(C(=O)[C@H](C)OC)C4=O)cc2C1=O (stereo partly drawn) [Example 248, 2-[(2S)-2-methoxypropanoyl]-5-({2-[(2S)-2-methoxypropanoyl]-1,3-dioxo-2,3-dihydro-1H-inden-5-yl}oxy)-2,3-dihydro-1H-indene-1,3-dione]			56%		26%	3 µM	
COCC(=O)C1C(=O)c2ccc(Oc3ccc4c(c3)C(=O)C(C(=O)COC)C4=O)cc2C1=O (centres unmarked) [Example 249, 2-(2-methoxyacetyl)-5-{[2-(2-methoxyacetyl)-1,3-dioxo-2,3-dihydro-1H-inden-5-yl]oxy}-2,3-dihydro-1H-indene-1,3-dione]			36%	3 µM	19%		
O=C1c2ccc(Oc3ccc4c(c3)C(=O)C(C(=O)C3CCCC3)C4=O)cc2C(=O)C1C(=O)C1CCCC1 (centres unmarked) [Example 251, 2-cyclopentanecarbonyl-5-[(2-cyclopentanecarbonyl-1,3-dioxo-2,3-dihydro-1H-inden-5-yl)oxy]-2,3-dihydro-1H-indene-1,3-dione]			45%	3 µM	32%		
Cc1ccccc1C(=O)CCC(=O)C1C(=O)c2ccc(C(=O)c3ccc4c(c3)C(=O)C(C(=O)CCC(=O)c3ccccc3C)C4=O)cc2C1=O (centres unmarked) [Example 252, 2-[4-(2-methylphenyl)-4-oxobutanoyl]-5-{2-[4-(2-methylphenyl)-4-oxobutanoyl]-1,3-dioxo-2,3-dihydro-1H-indene-5-carbonyl}-2,3-dihydro-1H-indene-1,3-dione]			37%	3 µM	14%		
Cc1ccccc1C(=O)CCC(=O)C1C(=O)c2ccc(S(=O)(=O)c3ccc4c(c3)C(=O)C(C(=O)CCC(=O)c3ccccc3C)C4=O)cc2C1=O (centres unmarked) [Example 254, 2-[4-(2-methylphenyl)-4-oxobutanoyl]-5-({2-[4-(2-methylphenyl)-4-oxobutanoyl]-1,3-dioxo-2,3-dihydro-1H-inden-5-yl}sulfonyl)-2,3-dihydro-1H-indene-1,3-dione]			51%		28%		
O=C(CCC(=O)C1C(=O)c2ccc(Oc3ccc4c(c3)C(=O)C(C(=O)CCC(=O)c3cccc(Cl)c3Cl)C4=O)cc2C1=O)c1cccc(Cl)c1Cl (centres unmarked) [Example 258, 2-[4-(2,3-dichlorophenyl)-4-oxobutanoyl]-5-({2-[4-(2,3-dichlorophenyl)-4-oxobutanoyl]-1,3-dioxo-2,3-dihydro-1H-inden-5-yl}oxy)-2,3-dihydro-1H-indene-1,3-dione]			33%		18%		
O=C(Cc1cccc(F)c1F)C1C(=O)c2ccc(Oc3ccc4c(c3)C(=O)C(C(=O)Cc3cccc(F)c3F)C4=O)cc2C1=O (centres unmarked) [Example 260, 2-[2-(2,3-difluorophenyl)acetyl]-5-({2-[2-(2,3-difluorophenyl)acetyl]-1,3-dioxo-2,3-dihydro-1H-inden-5-yl}oxy)-2,3-dihydro-1H-indene-1,3-dione]			46%		11%		
O=C(c1ccc2c(c1)C(=O)C(C(=O)CC1CCCC1=O)C2=O)c1ccc2c(c1)C(=O)C(C(=O)CC1CCCC1=O)C2=O (centres unmarked) [Example 261, 5-{1,3-dioxo-2-[2-(2-oxocyclopentyl)acetyl]-2,3-dihydro-1H-indene-5-carbonyl}-2-[2-(2-oxocyclopentyl)acetyl]-2,3-dihydro-1H-indene-1,3-dione]			77%	1.32 µM	67%		
CN(CC(=O)C1C(=O)c2ccc(Oc3ccc4c(c3)C(=O)C(C(=O)CN(C)C(=O)OC(C)(C)C)C4=O)cc2C1=O)C(=O)OC(C)(C)C (centres unmarked) [Example 263, tert-butyl N-[2-(5-{[2-(2-{[(tert-butoxy)carbonyl](methyl)amino}acetyl)-1,3-dioxo-2,3-dihydro-1H-inden-5-yl]oxy}-1,3-dioxo-2,3-dihydro-1H-inden-2-yl)-2-oxoethyl]-N-methylcarbamate]			69%	2.07 µM	72%		
CN(CC(=O)C1C(=O)c2ccc(C(=O)c3ccc4c(c3)C(=O)C(C(=O)CN(C)C(=O)OC(C)(C)C)C4=O)cc2C1=O)C(=O)OC(C)(C)C (centres unmarked) [Example 264, tert-butyl N-(2-{5-[2-(2-{[(tert-butoxy)carbonyl](methyl)amino}acetyl)-1,3-dioxo-2,3-dihydro-1H-indene-5-carbonyl]-1,3-dioxo-2,3-dihydro-1H-inden-2-yl}-2-oxoethyl)-N-methylcarbamate]			75%	9.83 µM	72%		
CC(C)(C)OC(=O)NCCC(=O)C1C(=O)c2ccc(Oc3ccc4c(c3)C(=O)C(C(=O)CCNC(=O)OC(C)(C)C)C4=O)cc2C1=O (centres unmarked) [Example 267, tert-butyl N-[3-(5-{[2-(3-{[(tert-butoxy)carbonyl]amino}propanoyl)-1,3-dioxo-2,3-dihydro-1H-inden-5-yl]oxy}-1,3-dioxo-2,3-dihydro-1H-inden-2-yl)-3-oxopropyl]carbamate]							100%
